target: T1, hM5 (Homo sapiens, UniProt P08912); experiment: Calcium mobilization concentration-response (IC50 vs EC80 acetylcholine), CHO hM5; assay type: cell-based; settings: CELL LINE hM5; calcium mobilization, EC80 acetylcholine addition; read-out: IC50
T1 construct: expressed in transfected cells
T1 sequence (P08912 1-532): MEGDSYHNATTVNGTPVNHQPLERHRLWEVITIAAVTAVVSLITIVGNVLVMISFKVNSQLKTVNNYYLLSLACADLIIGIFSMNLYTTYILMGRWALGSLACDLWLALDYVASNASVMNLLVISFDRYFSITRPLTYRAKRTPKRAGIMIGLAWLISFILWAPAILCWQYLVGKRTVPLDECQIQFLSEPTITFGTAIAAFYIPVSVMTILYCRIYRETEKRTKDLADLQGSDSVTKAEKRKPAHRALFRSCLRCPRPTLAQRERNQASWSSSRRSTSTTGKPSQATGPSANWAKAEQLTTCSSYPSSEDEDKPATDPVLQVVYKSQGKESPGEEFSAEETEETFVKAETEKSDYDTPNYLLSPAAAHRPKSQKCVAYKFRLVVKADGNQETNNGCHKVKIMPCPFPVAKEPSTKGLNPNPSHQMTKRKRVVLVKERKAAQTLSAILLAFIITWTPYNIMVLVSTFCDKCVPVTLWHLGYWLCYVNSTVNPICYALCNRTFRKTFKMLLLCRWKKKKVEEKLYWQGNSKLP
How it was run: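 CHO cells stably expressing hM5, dye-loaded, in HBSS/20 mM HEPES/2.5 mM probenecid, pH 7.4. Compounds were pre-incubated 140 s before an EC80 acetylcholine challenge, with calcium flux read kinetically.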

| SMILES | IC50 [nM] |
| --- | --- |
| Cc1c(S(=O)(=O)N2CC=C(c3cn4ncnc4c(F)c3F)CC2)cnn1C [Compound 379, 6-(1-((1,5-dimethyl-1H-pyrazol-4-yl)sulfonyl)-1,2,3,6-tetrahydropyridin-4-yl)-7,8-difluoro-[1,2,4]triazolo[1,5-a]pyridine] | 243 |
| CCc1cc2ncnn2cc1C1CCN(S(=O)(=O)c2cnn(C)c2C)CC1 [Compound 297, 6-(1-((1,5-dimethyl-1H-pyrazol-4-yl)sulfonyl)piperidin-4-yl)-7-ethyl-[1,2,4]triazolo[1,5-a]pyridine] | 73 |
| O=S(=O)(c1ccc2ncsc2c1)N1CCC(c2cc3cc[nH]c3cn2)CC1 [Compound 25, 6-((4-(1H-pyrrolo[2,3-c]pyridin-5-yl)piperidin-1-yl)sulfonyl)benzo[d]thiazole] | > 10000 |
| O=S(=O)(c1cnc2n1CCC2)N1CC=C(c2cn3ncnc3cc2Cl)CC1 [Compound 207, 7-chloro-6-(1-((6,7-dihydro-5H-pyrrolo[1,2-a]imidazol-3-yl)sulfonyl)-1,2,3,6-tetrahydropyridin-4-yl)-[1,2,4]triazolo[1,5-a]pyridine] | 1600 |
| Cc1c(S(=O)(=O)N2CCC(c3cn4ncnc4cc3C(F)(F)F)CC2)cnn1C [Compound 273, 6-(1-((1,5-dimethyl-1H-pyrazol-4-yl)sulfonyl)piperidin-4-yl)-7-(trifluoromethyl)-[1,2,4]triazolo[1,5-a]pyridine] | 150 |
| Cc1cc2ncnn2cc1C1CCN(S(=O)(=O)c2cnn3c2CCC3)C(C)C1 (centres unmarked) [Compound 363, 6-(1-((5,6-dihydro-4H-pyrrolo[1,2-b]pyrazol-3-yl)sulfonyl)-2-methylpiperidin-4-yl)-7-methyl-[1,2,4]triazolo[1,5-a]pyridine] | 618 |
| Cc1cc2nccnc2cc1C1=CCN(S(=O)(=O)c2cnn(C)c2Cl)CC1 [Compound 355, 6-(1-((5-chloro-1-methyl-1H-pyrazol-4-yl)sulfonyl)-1,2,3,6-tetrahydropyridin-4-yl)-7-methylquinoxaline] | 157 |
| Cc1cc2ncnn2nc1C1CCN(S(=O)(=O)c2cnn(C)c2C(F)(F)F)CC1 [Compound 177, 7-methyl-6-(1-((1-methyl-5-(trifluoromethyl)-1H-pyrazol-4-yl)sulfonyl)piperidin-4-yl)-[1,2,4]triazolo[1,5-b]pyridazine] | > 10000 |
| O=S(=O)(c1cnn2c1CCCC2)N1CCC(c2cn3ncnc3cc2Cl)CC1 [Compound 283, 7-chloro-6-(1-((4,5,6,7-tetrahydropyrazolo[1,5-a]pyridin-3-yl)sulfonyl)piperidin-4-yl)-[1,2,4]triazolo[1,5-a]pyridine] | 7.3 |
| O=S(=O)(c1cnn2c1CCCC2)N1CCC(c2ccncc2)CC1 [Compound 368, 3-((4-(pyridin-4-yl)piperidin-1-yl)sulfonyl)-4,5,6,7-tetrahydropyrazolo[1,5-a]pyridine] | > 10000 |
| O=S(=O)(c1ccc2ncccc2c1)N1CCC(c2cc3[nH]ncc3cn2)CC1 [Compound 20, 6-((4-(1H-pyrazolo[4,3-c]pyridin-6-yl)piperidin-1-yl)sulfonyl)quinoline] | > 10000 |
| Cc1cc2ncnn2cc1C1CCN(S(=O)(=O)c2cnc3c(c2)C(C)CO3)CC1 (centres unmarked) [Compound 136, 3-methyl-5-((4-(7-methyl-[1,2,4]triazolo[1,5-a]pyridin-6-yl)piperidin-1-yl)sulfonyl)-2,3-dihydrofuro[2,3-b]pyridine] | 235 |
| Cc1ccc(S(=O)(=O)N2CCC(c3cn4ccnc4cc3C)CC2)cn1 [Compound 69, 7-methyl-6-(1-((6-methylpyridin-3-yl)sulfonyl)piperidin-4-yl)imidazo[1,2-a]pyridine] | > 10000 |
| Cc1ccncc1C1CCN(S(=O)(=O)c2cnn3c2CCC3)CC1 [Compound 388, 3-((4-(4-methylpyridin-3-yl)piperidin-1-yl)sulfonyl)-5,6-dihydro-4H-pyrrolo[1,2-b]pyrazole] | 822 |
| Cc1cc2ncnn2cc1C1CCN(S(=O)(=O)c2c(Cl)nn(C)c2C)CC1 [Compound 325, 6-(1-((3-chloro-1,5-dimethyl-1H-pyrazol-4-yl)sulfonyl)piperidin-4-yl)-7-methyl-[1,2,4]triazolo[1,5-a]pyridine] | 25 |
| O=S(=O)(c1ccc2c(c1)CCO2)N1CCC(c2cn3ncnc3cc2F)CC1 [Compound 105, 6-(1-((2,3-dihydrobenzofuran-5-yl)sulfonyl)piperidin-4-yl)-7-fluoro-[1,2,4]triazolo[1,5-a]pyridine] | 2100 |
| O=S(=O)(c1ccc2ncsc2c1)N1CCC(c2cc3[nH]ncc3cn2)CC1 [Compound 19, 6-((4-(1H-pyrazolo[4,3-c]pyridin-6-yl)piperidin-1-yl)sulfonyl)benzo[d]thiazole] | > 10000 |
| [2H]C1([2H])Oc2cc(C)c(C3CCN(S(=O)(=O)c4cnc(C)n4C)CC3)cc2OC1([2H])[2H] [Compound 391, 1-((1,2-dimethyl-1H-imidazol-5-yl)sulfonyl)-4-(7-methyl-2,3-dihydrobenzo[b][1,4]dioxin-6-yl-2,2,3,3-d4)piperidine] | 636 |
| [2H]C([2H])([2H])n1cc(S(=O)(=O)N2CCC(c3cn4ncnc4cc3F)CC2)c(Cl)n1 [Compound 259, 6-(1-((3-chloro-1-(methyl-d3)-1H-pyrazol-4-yl)sulfonyl)piperidin-4-yl)-7-fluoro-[1,2,4]triazolo[1,5-a]pyridine] | 3000 |

same assay, conditions: CELL LINE hM5; vs EC80 acetylcholine; read-out: IC50

| SMILES | IC50 [nM] |
| --- | --- |
| Cn1ncc(S(=O)(=O)N2CCC(c3cn4ncnc4cc3C(F)(F)F)CC2)c1C#N [Compound 409, 1-methyl-4-((4-(7-(trifluoromethyl)-[1,2,4]triazolo[1,5-a]pyridin-6-yl)piperidin-1-yl)sulfonyl)-1H-pyrazole-5-carbonitrile] | 59 |
| Cc1cc(S(=O)(=O)N2CCC(c3cn4ncnc4cc3C)CC2)sn1 [Compound 491, 3-methyl-5-((4-(7-methyl-[1,2,4]triazolo[1,5-a]pyridin-6-yl)piperidin-1-yl)sulfonyl)isothiazole] | 6 |
| Cc1cc2ncccc2cc1C1CCN(S(=O)(=O)c2cnc3ccccn23)CC1 [Compound 452, 6-(1-(imidazo[1,2-a]pyridin-3-ylsulfonyl)piperidin-4-yl)-7-methylquinoline] | 445 |
| Cc1ncc(S(=O)(=O)N2CCC(c3cn4ccnc4cc3C)CC2)s1 [Compound 583, 2-methyl-5-((4-(7-methylimidazo[1,2-a]pyridin-6-yl)piperidin-1-yl)sulfonyl)thiazole] | 2070 |
| Cc1cc2ncnn2cc1C1CCN(S(=O)(=O)c2cn(C)nn2)CC1 [Compound 572, 7-methyl-6-(1-((1-methyl-1H-1,2,3-triazol-4-yl)sulfonyl)piperidin-4-yl)-[1,2,4]triazolo[1,5-a]pyridine] | 42 |
| [2H]C1([2H])CC(c2cn3ncnc3cc2F)CC([2H])([2H])N1S(=O)(=O)c1cnn2c1CCC2 [Compound 478, 6-(1-((5,6-dihydro-4H-pyrrolo[1,2-b]pyrazol-3-yl)sulfonyl)piperidin-4-yl-2,2,6,6-d4)-7-fluoro-[1,2,4]triazolo[1,5-a]pyridine] | 20 |
| COC1(c2cn3ncnc3cc2C)CCN(S(=O)(=O)c2cnn(C)c2Cl)CC1 [Compound 415, 6-(1-((5-chloro-1-methyl-1H-pyrazol-4-yl)sulfonyl)-4-methoxypiperidin-4-yl)-7-methyl-[1,2,4]triazolo[1,5-a]pyridine] | > 10000 |
| Cn1cnnc1S(=O)(=O)N1CCC(c2cn3ncnc3cc2Cl)CC1 [Compound 541, 7-chloro-6-(1-((4-methyl-4H-1,2,4-triazol-3-yl)sulfonyl)piperidin-4-yl)-[1,2,4]triazolo[1,5-a]pyridine] | 261 |
| CCc1cc2ncnn2cc1C1CCN(S(=O)(=O)c2cnn(C)c2OC)CC1 [Compound 584, 7-ethyl-6-(1-((5-methoxy-1-methyl-1H-pyrazol-4-yl)sulfonyl)piperidin-4-yl)-[1,2,4]triazolo[1,5-a]pyridine] | 77 |
| Cc1cc(S(=O)(=O)N2CCC(c3cn4ncnc4cc3C(F)(F)F)CC2)sn1 [Compound 495, 3-methyl-5-((4-(7-(trifluoromethyl)-[1,2,4]triazolo[1,5-a]pyridin-6-yl)piperidin-1-yl)sulfonyl)isothiazole] | 46 |
| Cc1cc2ncnn2cc1C1CCN(S(=O)(=O)c2cnn(C)c2C#N)CC1 [Compound 400, 1-Methyl-4-((4-(7-methyl-[1,2,4]triazolo[1,5-a]pyridin-6-yl)piperidin-1-yl)sulfonyl)-1H-pyrazole-5-carbonitrile] | 18 |
| Cc1cc2ncnn2cc1C1=C(C#N)CN(S(=O)(=O)c2cnn(C)c2C)CC1 [Compound 468, 1-((1,5-dimethyl-1H-pyrazol-4-yl)sulfonyl)-4-(7-methyl-[1,2,4]triazolo[1,5-a]pyridin-6-yl)-1,2,5,6-tetrahydropyridine-3-carbonitrile] | 1630 |
| Cc1cc2ncnn2cc1C1CCN(S(=O)(=O)c2cnn3ccccc23)CC1 [Compound 508, 7-methyl-6-(1-(pyrazolo[1,5-a]pyridin-3-ylsulfonyl)piperidin-4-yl)-[1,2,4]triazolo[1,5-a]pyridine] | 20 |

From patent US20230183237A1, “COMPETITIVE AND NONCOMPETITIVE INHIBITORS OF THE MUSCARINIC ACETYLCHOLINE RECEPTOR M5” (Vanderbilt University, priority 2020, published 2023)
